Where “and” joins values, the source holds several entries; their conditions need not be identical. Equal values may be shown once.
System: WM3248 melanoma cells, 486 antibodies
Test: Reverse phase protein arrays (RPPA)
Format: cell-based, Human
Conditions: 20 uM
Source text: Pellets were snap frozen in liquid nitrogen and shipped to MD Anderson Cancer Center core RPPA facility for RPPA analysis (Table S5). Three biological replicates for each sample were generated.
Nomenclatures on the RPPA heatmaps: name_of_antibody.species_of_antibody.status_of_antibody. V - antibody validated; C - validation of antibody in progress; Q - antibody nonspecific; E – under evaluation; antibodies raised in M - mouse, G - goat, R - rabbit, or T - rat.

CN(C)c1cccc(Nc2cc(-c3ccccc3)nc(C3CCNCC3)n2)c1 [ARN22089, N1,N1-dimethyl-N3-(6-phenyl-2-(piperidin-4-yl)pyrimidin-4-yl)benzene-1,3-diamine]
RPPA SGK1.R.V Average (average of 3): 0.842
RPPA SGK3.R.V Average (average of 3): 1.023
RPPA SHP2.R.V Average (average of 3): 1.005
RPPA SHP.2_pY542.R.C Average (average of 3): 1.076
RPPA SIRPαR.V Average (average of 3): 0.981
RPPA SLC1A5.R.C Average (average of 3): 1.080
RPPA SOD1.M.V Average (average of 3): 0.967
RPPA SOD2.R.V Average (average of 3): 1.111
RPPA SOX7.R.V Average (average of 3): 1.078
RPPA STING.R.V Average (average of 3): 0.964
RPPA Shc_pY317.R.C Average (average of 3): 1.012
RPPA Slfn11.G.C Average (average of 3): 0.995
RPPA Smac.M.Q Average (average of 3): 0.977
RPPA Smad1.R.V Average (average of 3): 1.081
RPPA Smad3.R.V Average (average of 3): 1.101
RPPA Smad4.R.V Average (average of 3): 1.112
RPPA Snail.M.Q Average (average of 3): 0.754
RPPA Sox2.R.V Average (average of 3): 1.223
RPPA Sox17.R.V Average (average of 3): 0.982
RPPA Src.M.V Average (average of 3): 0.962
RPPA Src_pY416.R.V Average (average of 3): 1.034
RPPA Src_pY527.R.V Average (average of 3): 1.187
RPPA Stat3.R.C Average (average of 3): 0.979
RPPA Stat3_pY705.R.C Average (average of 3): 1.281
RPPA Stat5a.R.V Average (average of 3): 1.185
RPPA Stathmin.1.R.V Average (average of 3): 0.924
RPPA Syk.M.V Average (average of 3): 0.975
RPPA TAZ.R.V Average (average of 3): 0.719
RPPA TEAD.R.C Average (average of 3): 0.998
RPPA TFAM.R.V Average (average of 3): 0.978
RPPA TFRC.R.V Average (average of 3): 0.934
RPPA TRAP1.M.V Average (average of 3): 0.944
RPPA TRIM24.R.C Average (average of 3): 1.085
RPPA TRIM25.R.C Average (average of 3): 0.893
RPPA TRIP13.R.V Average (average of 3): 0.978
RPPA Transglutaminase.M.V Average (average of 3): 1.323
RPPA signal, antibody TSC1.R.C, Average (average of 3 replicates): 0.906
RPPA signal, antibody TTF1.R.V, Average (average of 3 replicates): 1.016
RPPA signal, antibody TUFM.R.V, Average (average of 3 replicates): 1.103
RPPA signal, antibody Tuberin_pT1462.R.V, Average (average of 3 replicates): 1.116
RPPA signal, antibody Twist.M.C, Average (average of 3 replicates): 0.954
RPPA signal, antibody Tyro3.R.V, Average (average of 3 replicates): 1.154
RPPA signal, antibody U.Histone.H2B.R.C, Average (average of 3 replicates): 2.471
RPPA signal, antibody UBAC1.R.V, Average (average of 3 replicates): 1.016
RPPA signal, antibody UGT1A.M.V, Average (average of 3 replicates): 1.000
RPPA signal, antibody ULK1_pS757.R.C, Average (average of 3 replicates): 0.908
RPPA signal, antibody UQCRC2.M.C, Average (average of 3 replicates): 0.887
RPPA signal, antibody VASP.R.V, Average (average of 3 replicates): 0.952
RPPA signal, antibody VAV1.R.C, Average (average of 3 replicates): 1.024
RPPA signal, antibody VEGFR.2.R.V, Average (average of 3 replicates): 0.928
RPPA signal, antibody VEGFR.2_pY1175.R.C, Average (average of 3 replicates): 1.063
RPPA signal, antibody VHL.EPPK1.M.C, Average (average of 3 replicates): 1.020
RPPA signal, antibody VHL.R.C, Average (average of 3 replicates): 0.956
RPPA signal, antibody Vinculin.M.V, Average (average of 3 replicates): 0.913
RPPA signal, antibody WIPI2.R.C, Average (average of 3 replicates): 1.142
RPPA signal, antibody WTAP.R.V, Average (average of 3 replicates): 1.197
RPPA signal, antibody Wee1.R.C, Average (average of 3 replicates): 1.011
RPPA signal, antibody XBP.1.G.C, Average (average of 3 replicates): 0.972
RPPA signal, antibody XIAP.R.C, Average (average of 3 replicates): 0.993
RPPA signal, antibody XPA.M.V, Average (average of 3 replicates): 0.982
RPPA signal, antibody XPF.R.C, Average (average of 3 replicates): 0.952
RPPA signal, antibody XRCC1.R.C, Average (average of 3 replicates): 1.024
RPPA signal, antibody YAP.R.C, Average (average of 3 replicates): 0.993
RPPA signal, antibody YB1_pS102.R.V, Average (average of 3 replicates): 1.015
RPPA signal, antibody YES1.R.V, Average (average of 3 replicates): 0.974
RPPA signal, antibody YTHDF2.R.V, Average (average of 3 replicates): 1.022
RPPA signal, antibody YTHDF3.R.C, Average (average of 3 replicates): 0.957
RPPA signal, antibody ZAP.70.R.V, Average (average of 3 replicates): 0.929
RPPA signal, antibody ZEB1.R.V, Average (average of 3 replicates): 1.026
RPPA signal, antibody TSC1.R.C (individual replicates): 0.941 and 0.818 and 0.960
RPPA signal, antibody TTF1.R.V (individual replicates): 1.015 and 0.923 and 1.110
RPPA signal, antibody TUFM.R.V (individual replicates): 1.758 and 0.731 and 0.819
RPPA signal, antibody Tuberin.R.V (individual replicates): 0.781 and 1.344 and 1.402
RPPA signal, antibody Tuberin_pT1462.R.V (individual replicates): 0.961 and 1.362 and 1.023
RPPA signal, antibody Twist.M.C (individual replicates): 0.937 and 0.987
RPPA signal, antibody Tyro3.R.V (individual replicates): 1.400 and 1.084 and 0.979
RPPA signal, antibody U.Histone.H2B.R.C (individual replicates): 5.570 and 0.775
RPPA signal, antibody UBAC1.R.V (individual replicates): 1.007 and 0.954
RPPA signal, antibody UBQLN4.M.C (individual replicates): 1.008 and 0.906 and 0.933
RPPA signal, antibody UGT1A.M.V (individual replicates): 0.958 and 1.050 and 0.991
RPPA signal, antibody ULK1_pS757.R.C (individual replicates): 0.848 and 1.011
